Data from patent US11957759B1, “Rapidly accelerated fibrosarcoma (RAF) degrading compounds and associated methods of use” (Arvinas Operations, Inc., priority 2022, dated 2024).

How the values were obtained:
B-RAF V600E = biological target: T1, B-RAF V600E (Homo sapiens, UniProt P15056, V600E); experiment: Target protein degradation, assay C: T-Rex 293 cells, HA-BRAF_V600E, 384 well format; type: cell-based; conditions: T-Rex 293 HA-BRAF_V600E cells, 24 hours, Examples 83-269; for DC50: Assay C; for Dmax: T-REx-293, Assay C
T1 construct: expressed in transfected cells; host or cells: T-Rex 293 cells (Invitrogen #R71007)
Summary of the method: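 After 24 h exposure to an 11-point 1:3 series (300 nM–5 pM, 0.5% DMSO), fixed T-Rex 293 cells carrying HA-BRAF V600E (induced with 1 ng/mL doxycycline) were stained anti-HA and imaged. DC50 and Dmax were derived from BRAF intensity relative to control, and cytotoxicity from nuclear counts.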

B-RAF G466V = biological target: T2, B-RAF G466V (Homo sapiens, UniProt P15056, G466V); experiment: Target protein degradation, assay D: T-Rex 293 cells, HA-BRAF_G466V, 384 well format; type: cell-based; conditions: T-Rex 293 HA-BRAF_G466V cells, 24 hours, Examples 83-269; for DC50: Assay D; for Dmax: T-REx-293, Assay D
T2 construct: expressed in transfected cells; host or cells: T-Rex 293 cells (Invitrogen #R71007)
Summary of the method: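 Degradation measured by high-content imaging of anti-HA immunofluorescence in fixed T-Rex 293 cells carrying inducible HA-BRAF G466V (1 ng/mL doxycycline), after 24 h PROTAC exposure at 37 °C over 300 nM–5 pM (1:3, 11 points, 0.5% DMSO). Outputs DC50 and Dmax as % of control; nuclei counts against DMSO wells gauge toxicity.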

T2 sequence (P15056 whole entry G466V): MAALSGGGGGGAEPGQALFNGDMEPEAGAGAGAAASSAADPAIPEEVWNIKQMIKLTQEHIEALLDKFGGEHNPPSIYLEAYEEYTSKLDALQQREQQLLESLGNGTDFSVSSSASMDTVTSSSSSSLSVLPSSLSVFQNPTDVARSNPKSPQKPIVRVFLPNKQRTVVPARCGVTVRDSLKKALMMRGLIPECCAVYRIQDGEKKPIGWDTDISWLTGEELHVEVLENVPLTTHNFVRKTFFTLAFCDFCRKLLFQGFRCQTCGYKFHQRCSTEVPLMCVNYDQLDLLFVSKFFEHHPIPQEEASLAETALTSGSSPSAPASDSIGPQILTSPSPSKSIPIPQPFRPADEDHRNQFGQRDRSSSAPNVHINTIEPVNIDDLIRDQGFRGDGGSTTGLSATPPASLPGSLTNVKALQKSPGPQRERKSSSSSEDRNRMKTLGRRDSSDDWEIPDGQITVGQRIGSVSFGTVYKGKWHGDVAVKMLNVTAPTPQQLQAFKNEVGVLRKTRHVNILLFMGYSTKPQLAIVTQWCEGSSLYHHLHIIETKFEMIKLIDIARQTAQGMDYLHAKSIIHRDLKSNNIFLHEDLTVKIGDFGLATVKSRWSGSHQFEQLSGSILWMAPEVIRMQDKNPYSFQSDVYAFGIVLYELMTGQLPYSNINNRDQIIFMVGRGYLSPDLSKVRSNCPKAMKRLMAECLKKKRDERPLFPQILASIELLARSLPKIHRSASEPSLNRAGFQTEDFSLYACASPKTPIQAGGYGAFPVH
T1 sequence (P15056 whole entry V600E): as the sequence (P15056 whole entry G466V) above, with V466G, V600E counted along it

Compound `N#Cc1c(NS(=O)(=O)N2CC[C@@H](F)C2)ccc(F)c1Oc1ccc2ncn(-c3ccc(N4CCC(CN5CC6(CC(c7ccc8c(c7)CN(C7CCC(=O)NC7=O)C8=O)C6)C5)CC4)cc3)c(=O)c2c1` (stereo partly drawn) [Example 182, (3R)-N-{2-cyano-3-[(3-(4-[4-({6-[2-(2,6-dioxopiperidin-3-yl)-1-oxo-2,3-dihydro-1H-isoindol-5-yl]-2-azaspiro[3.3]heptan-2-yl}methyl)piperidin-1-yl]phenyl}-4-oxo-3,4-dihydroquinazolin-6-yl)oxy]-4-fluorophenyl}-3-fluoropyrrolidine-1-sulfonamide] has a DC50 (B-RAF V600E) of 50 to 500 nM, a Dmax (B-RAF V600E) of at most 35% and a DC50 (B-RAF G466V) of 1 to 10 nM. For the same compound, the Dmax (B-RAF G466V) was 35 to 70%.

`N#Cc1c(NS(=O)(=O)N2CC[C@@H](F)C2)ccc(F)c1Oc1ccc2ncn(C3COC4(CCN(C(=O)CC5(O)CCN(c6ccc7c(c6)CN([C@H]6CCC(=O)NC6=O)C7=O)CC5)CC4)C3)c(=O)c2c1` (stereo partly drawn) [Example 180, (3R)—N-{2-cyano-3-[(3-{8-[2-(1-{2-[(3S)-2,6-dioxopiperidin-3-yl]-1-oxo-2,3-dihydro-1H-isoindol-5-yl}-4-hydroxypiperidin-4-yl)acetyl]-1-oxa-8-azaspiro[4.5]decan-3-yl}-4-oxo-3,4-dihydroquinazolin-6-yl)oxy]-4-fluorophenyl}-3-fluoropyrrolidine-1-sulfonamide] gave a DC50 (B-RAF V600E) of 50 to 500 nM, a Dmax (B-RAF V600E) of 35 to 70% and a DC50 (B-RAF G466V) of over 30 nM. The Dmax (B-RAF G466V) was 35 to 70%.

`N#Cc1c(NS(=O)(=O)N2CC[C@@H](F)C2)ccc(F)c1Oc1ccc2ncn(-c3cnc(C4(N5CCN(CC6CCN(c7ccc(C8CCC(=O)NC8=O)cc7F)CC6)CC5)CC4)nc3)c(=O)c2c1` (stereo partly drawn) [Example 106, (3R)-N-(2-cyano-3-{[3-(2-{1-[4-({1-[4-(2,6-dioxopiperidin-3-yl)-2-fluorophenyl]piperidin-4-yl}methyl)piperazin-1-yl]cyclopropyl}pyrimidin-5-yl)-4-oxo-3,4-dihydroquinazolin-6-yl]oxy}-4-fluorophenyl)-3-fluoropyrrolidine-1-sulfonamide] was tested, and the DC50 (B-RAF V600E) was 50 to 500 nM, the Dmax (B-RAF V600E) was 35 to 70% and the DC50 (B-RAF G466V) was 1 to 10 nM. It also gave a Dmax (B-RAF G466V) of at most 35%.

`N#Cc1c(NS(=O)(=O)N2CC[C@@H](F)C2)ccc(F)c1Oc1ccc2ncn(-c3ccc(N4CCN(CC5CCN(c6ccc(N7CCC(=O)NC7=O)cc6)CC5)CC4)cc3)c(=O)c2c1` [Example 96, (3R)-N-{2-cyano-3-[(3-(4-[4-({1-[4-(2,4-dioxo-1,3-diazinan-1-yl)phenyl]piperidin-4-yl}methyl)piperazin-1-yl]phenyl}-4-oxo-3,4-dihydroquinazolin-6-yl)oxy]-4-fluorophenyl}-3-fluoropyrrolidine-1-sulfonamide] showed a DC50 (B-RAF V600E) of 5 to 50 nM, a Dmax (B-RAF V600E) of 35 to 70% and a DC50 (B-RAF G466V) of 1 to 10 nM. For the same compound, the Dmax (B-RAF G466V) was at most 35%.

`N#Cc1c(NS(=O)(=O)N2CC[C@@H](F)C2)ccc(F)c1Oc1ccc2ncn(-c3cccc(N4CCN(CC5CN(c6ccc7c(c6)CN([C@H]6CCC(=O)NC6=O)C7=O)C5)CC4)c3)c(=O)c2c1` [Example 254, (3R)-N-(2-cyano-3-{[3-(3-{4-[(1-{2-[(3S)-2,6-dioxopiperidin-3-yl]-1-oxo-2,3-dihydro-1H-isoindol-5-yl}azetidin-3-yl)methyl]piperazin-1-yl}phenyl)-4-oxo-3,4-dihydroquinazolin-6-yl]oxy}-4-fluorophenyl)-3-fluoropyrrolidine-1-sulfonamide] showed a DC50 (B-RAF V600E) of 50 to 500 nM, a Dmax (B-RAF V600E) of 35 to 70% and a DC50 (B-RAF G466V) of 1 to 10 nM. For the same compound, the Dmax (B-RAF G466V) was at least 70%.

With `N#Cc1c(NS(=O)(=O)N2CC[C@@H](F)C2)ccc(F)c1Oc1ccc2ncn(-c3ccc(N4CCC(CN5CCN(CC6CCN(c7ccc8c(c7)C(=O)N(C7CCC(=O)NC7=O)C8=O)CC6)CC5)CC4)nc3)c(=O)c2c1` (stereo partly drawn) [Example 147, (3R)-N-[2-cyano-3-({3-[6-(4-{[4-({1-[2-(2,6-dioxopiperidin-3-yl)-1,3-dioxo-2,3-dihydro-1H-isoindol-5-yl]piperidin-4-yl}methyl)piperazin-1-yl]methyl}piperidin-1-yl)pyridin-3-yl]-4-oxo-3,4-dihydroquinazolin-6-yl}oxy)-4-fluorophenyl]-3-fluoropyrrolidine-1-sulfonamide] the DC50 (B-RAF V600E) was 5 to 50 nM, the Dmax (B-RAF V600E) was 35 to 70% and the DC50 (B-RAF G466V) was 1 to 10 nM. For the same compound, the Dmax (B-RAF G466V) was 35 to 70%.

In the case of `Cc1cc(N2CC(CN3CCN(c4ccc(-n5cnc6ccc(Oc7c(F)ccc(NS(=O)(=O)N8CC[C@@H](F)C8)c7C#N)cc6c5=O)cc4)CC3)C2)cc2c1C(=O)N([C@H]1CCC(=O)NC1=O)C2` [Example 234, (3R)-N-(2-cyano-3-{[3-(4-{4-[(1-{2-[(3S)-2,6-dioxopiperidin-3-yl]-7-methyl-1-oxo-2,3-dihydro-1H-isoindol-5-yl}azetidin-3-yl)methyl]piperazin-1-yl}phenyl)-4-oxo-3,4-dihydroquinazolin-6-yl]oxy}-4-fluorophenyl)-3-fluoropyrrolidine-1-sulfonamide], the DC50 (B-RAF V600E) is reported as 50 to 500 nM, the Dmax (B-RAF V600E) is reported as 35 to 70% and the DC50 (B-RAF G466V) is reported as 1 to 10 nM. It also gave a Dmax (B-RAF G466V) of 35 to 70%.

`N#Cc1c(NS(=O)(=O)N2CC[C@@H](F)C2)ccc(F)c1Oc1ccc2ncn(-c3ccc(N4CC5(CCN(CC6CCN(c7ccc8c(c7)CN([C@@H]7CCC(=O)NC7=O)C8=O)CC6)CC5)C4)cc3)c(=O)c2c1` [Example 193, (3R)-N-(2-cyano-3-{[3-(4-{7-[(1-{2-[(3R)-2,6-dioxopiperidin-3-yl]-1-oxo-2,3-dihydro-1H-isoindol-5-yl}piperidin-4-yl)methyl]-2,7-diazaspiro[3.5]nonan-2-yl}phenyl)-4-oxo-3,4-dihydroquinazolin-6-yl]oxy}-4-fluorophenyl)-3-fluoropyrrolidine-1-sulfonamide] showed a DC50 (B-RAF V600E) of 50 to 500 nM, a Dmax (B-RAF V600E) of 35 to 70% and a DC50 (B-RAF G466V) of 1 to 10 nM. For the same compound, the Dmax (B-RAF G466V) was 35 to 70%.

`N#Cc1c(NS(=O)(=O)N2CC[C@@H](F)C2)ccc(F)c1Oc1ccc2ncn(-c3ccc(N4CCN(CC5CCN(c6cc7c(c(C(F)(F)F)c6)C(=O)N(C6CCC(=O)NC6=O)C7)CC5)CC4)cc3)c(=O)c2c1` (stereo partly drawn) [Example 266, (3R)-N-{2-cyano-3-[(3-{4-[4-({1-[2-(2,6-dioxopiperidin-3-yl)-1-oxo-7-(trifluoromethyl)-2,3-dihydro-1H-isoindol-5-yl]piperidin-4-yl}methyl)piperazin-1-yl]phenyl}-4-oxo-3,4-dihydroquinazolin-6-yl)oxy]-4-fluorophenyl}-3-fluoropyrrolidine-1-sulfonamide] was tested, and the DC50 (B-RAF V600E) was 50 to 500 nM, the Dmax (B-RAF V600E) was 35 to 70% and the DC50 (B-RAF G466V) was over 30 nM.

Compound `N#Cc1c(NS(=O)(=O)N2CC[C@@H](F)C2)ccc(F)c1Oc1ccc2ncn(-c3ccc(N4CCC(CN5CCN(CC6CCN(c7ccc8c(c7)CN([C@@H]7CCC(=O)NC7=O)C8=O)CC6)CC5)CC4)cc3)c(=O)c2c1` [Example 186, (3R)-N-{2-cyano-3-[(3-{4-[4-({4-[(1-{2-[(3R)-2,6-dioxopiperidin-3-yl]-1-oxo-2,3-dihydro-1H-isoindol-5-yl}piperidin-4-yl)methyl]piperazin-1-yl}methyl)piperidin-1-yl]phenyl}-4-oxo-3,4-dihydroquinazolin-6-yl)oxy]-4-fluorophenyl}-3-fluoropyrrolidine-1-sulfonamide] has a DC50 (B-RAF V600E) of 50 to 500 nM, a Dmax (B-RAF V600E) of 35 to 70% and a DC50 (B-RAF G466V) of 10 to 30 nM. The Dmax (B-RAF G466V) was at most 35%.

`N#Cc1c(NS(=O)(=O)N2CC[C@@H](F)C2)ccc(F)c1Oc1ccc2ncn(-c3ccc(N4CC5(CN(CC6CCN(c7cccc8c7C(=O)N(C7CCC(=O)NC7=O)C8=O)CC6)C5)C4)nc3)c(=O)c2c1` (stereo partly drawn) [Example 174, (3R)-N-{2-cyano-3-[(3-{6-[6-({1-[2-(2,6-dioxopiperidin-3-yl)-1,3-dioxo-2,3-dihydro-1H-isoindol-4-yl]piperidin-4-yl}methyl)-2,6-diazaspiro[3.3]heptan-2-yl]pyridin-3-yl}-4-oxo-3,4-dihydroquinazolin-6-yl)oxy]-4-fluorophenyl}-3-fluoropyrrolidine-1-sulfonamide] gave a DC50 (B-RAF V600E) of 50 to 500 nM, a Dmax (B-RAF V600E) of 35 to 70% and a DC50 (B-RAF G466V) of 1 to 10 nM. The Dmax (B-RAF G466V) was at most 35%.

With `Cn1c(=O)n(C2CCC(=O)NC2=O)c2cccc(N3CCC(CN4CCN(c5ccc(-n6cnc7ccc(Oc8c(F)ccc(NS(=O)(=O)N9CC[C@@H](F)C9)c8C#N)cc7c6=O)cc5)CC4)CC3)c21` (stereo partly drawn) [Example 98, (3R)-N-{2-cyano-3-[(3-{4-[4-({1-[1-(2,6-dioxopiperidin-3-yl)-3-methyl-2-oxo-2,3-dihydro-1H-1,3-benzodiazol-4-yl]piperidin-4-yl}methyl)piperazin-1-yl]phenyl}-4-oxo-3,4-dihydroquinazolin-6-yl)oxy]-4-fluorophenyl}-3-fluoropyrrolidine-1-sulfonamide] the DC50 (B-RAF V600E) was 50 to 500 nM, the Dmax (B-RAF V600E) was 35 to 70% and the DC50 (B-RAF G466V) was 1 to 10 nM. It also gave a Dmax (B-RAF G466V) of 35 to 70%.

`N#Cc1c(NS(=O)(=O)N2CC[C@@H](F)C2)ccc(F)c1Oc1ccc2ncn(-c3ccc(N4CCC(OC5CC6(C5)CN(c5ccc7c(c5)CN(C5CCC(=O)NC5=O)C7=O)C6)CC4)cc3)c(=O)c2c1` (stereo partly drawn) [Example 178, (3R)—N-{2-cyano-3-[(3-{4-[4-({2-[2-(2,6-dioxopiperidin-3-yl)-1-oxo-2,3-dihydro-1H-isoindol-5-yl]-2-azaspiro[3.3]heptan-6-yl}oxy)piperidin-1-yl]phenyl}-4-oxo-3,4-dihydroquinazolin-6-yl)oxy]-4-fluorophenyl}-3-fluoropyrrolidine-1-sulfonamide] was tested, and the DC50 (B-RAF V600E) was 50 to 500 nM, the Dmax (B-RAF V600E) was 35 to 70% and the DC50 (B-RAF G466V) was 10 to 30 nM. It also gave a Dmax (B-RAF G466V) of 35 to 70%.
